Patent US9023844B2, “Heterocyclylpyri (mi) dinylpyrazole as fungicidals” (Bayer Intellectual Property GmbH, priority 2011, dated 2015)
Like-named read-outs stand apart in the source and are kept apart here.

What was measured:
[1] = Determination of log P values by HPLC on a reverse phase column (C18), EEC-Directive 79/831 Annex V.A8 (Methods A, B, C); format: physicochemical; settings: for chromatographic logP: reverse phase C18 HPLC column
Summary of the method: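 LogP was determined by C18 reverse-phase HPLC/UPLC with acetonitrile/water eluents containing formic acid. Method A used a 10–95% acetonitrile gradient over 4.25 min at 55 °C and 2.0 mL/min. Method B used 5–95% over 1.70 min at 55 °C and 2.0 mL/min, and Method C used 10–95% over 3.25 min at 40 °C and 0.8 mL/min, with MS detection.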

Venturia inaequalis = test: Example I: Venturia test (apples) / preventive; settings: 100 ppm of active ingredient, preventive spray, evaluated 10 days after inoculation
Method: After the spray coating has dried on, the plants are inoculated with an aqueous conidia suspension of the causal agent of apple scab (Venturia inaequalis) and then remain for 1 day in an incubation cabinet at approximately 20° C. and a relative atmospheric humidity of 100%.
The plants are then placed in a greenhouse at approximately 21° C. and a relative atmospheric humidity of approximately 90%.
The test is evaluated 10 days after the inoculation.

[2] = tested on: DON/Acetyl-DON production by Fusarium graminearum; test: microbe, parasite or virus in culture; format: cell-based; settings: at 50 μM
[3] = tested on: Fusarium nivale (var. majus); test: Example K: Fusarium nivale (var. majus) test (wheat) / preventive; format: in vivo; settings: 500 ppm of active ingredient, preventive spray, evaluated 5 days after inoculation
Method: After the spray coating has been dried, the plants are slightly injured by using a sandblast and afterwards they are sprayed with a conidia suspension of Fusarium nivale (var. majus).
The test is evaluated 5 days after the inoculation.

Pyrenophora teres = test: Example D: Pyrenophora test (barley) / preventive; format: in vivo
Phytophthora infestans = format: in vivo
Fusarium graminearum [4] = test: microbe, parasite or virus in culture; format: cell-based
Septoria tritici = test: Example J: Septoria tritici test (wheat) / preventive; format: in vivo
Uromyces appendiculatus = test: Example B: Uromyces test (beans) / preventive; format: in vivo
Puccinia recondita = test: Example E: Puccinia test (wheat) / preventive; format: in vivo
Sphaerotheca fuliginea = test: Example A: Sphaerotheca test (cucumber) / preventive; format: in vivo
Leptosphaeria nodorum = test: Example C: Leptosphaeria test (wheat) / preventive; format: in vivo
Pyricularia oryzae = format: in vivo
Plasmopara viticola = test: Example H: Plasmopara test (grapevines) / preventive; format: in vivo
Fusarium graminearum [5] = format: in vivo
[6] = 500 ppm of active ingredient, wheat, preventive spray, evaluated 7-9 days after inoculation
[7] = Method B (HPLC, reverse phase C18)

Structure (SMILES)	efficacy (Venturia inaequalis)	efficacy [3]	LogP [1, 7]	efficacy (Pyrenophora teres; in vivo)	efficacy (Phytophthora infestans; in vivo)	efficacy (Septoria tritici; in vivo)	efficacy (Uromyces appendiculatus; in vivo)	efficacy (Puccinia recondita; in vivo)	efficacy (Sphaerotheca fuliginea; in vivo)	efficacy (Leptosphaeria nodorum; in vivo)	efficacy (Pyricularia oryzae; in vivo)	efficacy (Plasmopara viticola; in vivo)	efficacy (Fusarium graminearum [5]; in vivo)	further results
O=C(Nc1cc(-c2c(-c3ccc(F)cc3)nn3c2OCCC3)ccn1)C1CC1 [Example 4, N-{4-[2-(4-fluorophenyl)-6,7-dihydro-5H-pyrazolo[5,1-b][1,3]oxazin-3-yl]pyridin-2-yl}cyclo-propanecarboxamide]	95%	100%												chromatographic logP ([1]; Method B (HPLC, reverse phase C18), read-out: LogP): 1.47; chromatographic logP ([1]; pH 2.7, values in the synthesis examples, HPLC, reverse phase C18, read-out: log P (pH 2.7)): 1.39; inhibition at 50 µM ([2]; Fusarium graminearum, read-out: Inhibition of DON/AcDON in %): 99%; efficacy (Pyrenophora teres; 500 ppm of active ingredient, barley, preventive spray, evaluated 7-9 days after inoculation): 100%; efficacy (Phytophthora infestans; 100 ppm of active ingredient, tomatoes, preventive spray, evaluated 3 days after inoculation): 94%; inhibition at 50 µM (Fusarium graminearum [4]; Fusarium graminearum, read-out: Growth inhibition of Fusarium graminearum in %): 69%; efficacy (Septoria tritici; 500 ppm of active ingredient, wheat, preventive spray, evaluated 21 days after inoculation): 80%; efficacy (Uromyces appendiculatus; 500 ppm of active ingredient, beans, preventive spray, evaluated 6-8 days after inoculation): 90%; efficacy (Puccinia recondita; [6]): 100%; efficacy (Sphaerotheca fuliginea; 500 ppm of active ingredient, cucumber, preventive spray, evaluated 7 days after inoculation): 100%; efficacy (Leptosphaeria nodorum; [6]): 90%; efficacy (Pyricularia oryzae; 500 ppm of active ingredient, rice, preventive spray, evaluated 7 days after inoculation): 100%; efficacy (Plasmopara viticola; 100 ppm of active ingredient, grapevines, preventive spray, evaluated 6 days after inoculation): 100%; efficacy (Fusarium graminearum [5]; 500 ppm of active ingredient, barley, preventive spray, evaluated 5 days after inoculation): 100%
CCC(=O)Nc1cc(-c2c(-c3ccccc3)nn3c2OCCC3)ccn1 [Example 6]	100%	100%	1.16	95%	96%	100%	89%	100%	98%	90%	94%	94%	100%	
CC(C)C(=O)Nc1cc(-c2c(-c3ccccc3)nn3c2OCCC3)ccn1 [Example 8]	98%	93%	1.39	95%	95%	80%	94%	100%	100%	95%	94%	100%	100%	
O=C(CC(F)(F)F)Nc1cc(-c2c(-c3ccccc3)nn3c2OCCC3)ccn1 [Example 17]	100%	100%	1.98	95%	95%		94%	100%			94%	100%		
CC(C)CC(=O)Nc1cc(-c2c(-c3ccc(F)cc3)nn3c2OCCC3)ccn1 [Example 25]	100%	100%	1.82	100%	93%	80%	94%	100%	100%	95%	100%	98%	100%	
CCC(=O)Nc1cc(-c2c(-c3ccc(F)cc3F)nn3c2OCCC3)ccn1 [Example 35]	100%	100%	1.34	95%	99%	100%	92%	100%		80%	94%	95%	100%	Inhibition of DON/AcDON in % [2]: 99%; Growth inhibition of Fusarium graminearum in % (Fusarium graminearum [4]; at 50 μM): 100%
CC(C)C(=O)Nc1cc(-c2c(-c3ccc(F)cc3F)nn3c2OCCC3)ccn1 [Example 37]	100%	100%	1.6	95%	95%	88%	94%	100%	100%	70%	94%	100%	100%	
CCC(=O)N(C(C)=O)c1cc(-c2c(-c3ccc(F)cc3)nn3c2OCCC3)ccn1 [Example 52]	98%	100%		95%	95%	100%		95%	95%	80%	95%	84%	100%	LogP ([1]; Method A: HPLC, reverse phase C18, acetonitrile (0.1% formic acid)/water (0.09% formic acid) gradient): 2.4
